# According to ChEMBL document CHEMBL4507310, “Data for DCP probe A-1211212” (2021):
# What was measured:
# [1] = biological target: Sodium/potassium-transporting ATPase (Sus scrofa) (UniProt P05027+P05024+D2WKD8+D2WKD7+F1ST41); experiment: ATPase (Na+/K+) Eurofins-Cerep enzyme and uptake assay; assay type: protein-complex assay; conditions: Compound concentration 10.0 uM
# [2] = biological target: 5-hydroxytryptamine receptor 1B (Homo sapiens) (UniProt P28222); conditions: Compound concentration 10.0 uM
# [3] = biological target: Alpha-2C adrenergic receptor (Homo sapiens) (UniProt P18825); conditions: Compound concentration 10.0 uM
# [4] = biological target: Dual specificity mitogen-activated protein kinase kinase 1 (Homo sapiens) (UniProt Q02750); conditions: Compound concentration 1000.0 nM
# [5] = biological target: Mitogen-activated protein kinase kinase kinase 1 (Homo sapiens) (UniProt Q13233); conditions: Compound concentration 1000.0 nM
# [6] = biological target: Inhibitor of nuclear factor kappa-B kinase subunit beta (Homo sapiens) (UniProt O14920); conditions: Compound concentration 1000.0 nM
# [7] = tested on: Epidermal growth factor receptor (Homo sapiens), P00533 [UNDEFINED MUTATION]; conditions: Compound concentration 1000.0 nM
# [8] = biological target: Ribosomal protein S6 kinase alpha-3 (Homo sapiens) (UniProt P51812); conditions: Compound concentration 1000.0 nM
# [9] = biological target: Serine/threonine-protein kinase 32C (Homo sapiens) (UniProt Q86UX6); conditions: Compound concentration 1000.0 nM
# [10] = biological target: Serine/threonine-protein kinase B-raf (Homo sapiens) (UniProt P15056); conditions: Compound concentration 1000.0 nM
# [11] = biological target: Rhodopsin kinase GRK1 (Homo sapiens) (UniProt Q15835); conditions: Compound concentration 1000.0 nM
# [12] = biological target: Activated CDC42 kinase 1 (Homo sapiens) (UniProt Q07912); conditions: Compound concentration 1000.0 nM
# [13] = tested on: Tyrosine-protein kinase ABL1 (Homo sapiens), P00519 [F317L]; conditions: Compound concentration 1000.0 nM
# [14] = biological target: Glycogen synthase kinase-3 beta (Homo sapiens) (UniProt P49841); conditions: Compound concentration 1000.0 nM
# [15] = biological target: Tyrosine-protein kinase ABL1 (Homo sapiens) (UniProt P00519); conditions: Compound concentration 1000.0 nM
# [16] = biological target: Serine/threonine-protein kinase 36 (Homo sapiens) (UniProt Q9NRP7); conditions: Compound concentration 1000.0 nM
# [17] = biological target: Serine/threonine-protein kinase MRCK beta (Homo sapiens) (UniProt Q9Y5S2); conditions: Compound concentration 1000.0 nM
# [18] = biological target: Endothelin-1 receptor (Homo sapiens) (UniProt P25101); experiment: ETA (h) Eurofins-Cerep binding assay; parameters: ligand concentration 0.03 nM; conditions: filed as agonist, Compound concentration 10.0 uM
# [19] = biological target: D(1A) dopamine receptor (Homo sapiens) (UniProt P21728); conditions: Compound concentration 10.0 uM
# [20] = biological target: 5'-AMP-activated protein kinase catalytic subunit alpha-1 (Homo sapiens) (UniProt Q13131); conditions: Compound concentration 1000.0 nM
# [21] = biological target: Casein kinase I isoform gamma-3 (Homo sapiens) (UniProt Q9Y6M4); conditions: Compound concentration 1000.0 nM
# [22] = biological target: Cyclin-dependent kinase 4 (Homo sapiens) (UniProt P11802); conditions: Compound concentration 1000.0 nM
# [23] = tested on: Receptor-type tyrosine-protein kinase FLT3 (Homo sapiens), P36888 [UNDEFINED MUTATION]; conditions: Compound concentration 1000.0 nM
# [24] = biological target: Protein kinase C epsilon type (Homo sapiens) (UniProt Q02156); conditions: Compound concentration 1000.0 nM
# [25] = biological target: T1, Alpha-2A adrenergic receptor (Homo sapiens) (UniProt P08913); conditions: Compound concentration 10.0 uM
# T1 sequence (whole entry): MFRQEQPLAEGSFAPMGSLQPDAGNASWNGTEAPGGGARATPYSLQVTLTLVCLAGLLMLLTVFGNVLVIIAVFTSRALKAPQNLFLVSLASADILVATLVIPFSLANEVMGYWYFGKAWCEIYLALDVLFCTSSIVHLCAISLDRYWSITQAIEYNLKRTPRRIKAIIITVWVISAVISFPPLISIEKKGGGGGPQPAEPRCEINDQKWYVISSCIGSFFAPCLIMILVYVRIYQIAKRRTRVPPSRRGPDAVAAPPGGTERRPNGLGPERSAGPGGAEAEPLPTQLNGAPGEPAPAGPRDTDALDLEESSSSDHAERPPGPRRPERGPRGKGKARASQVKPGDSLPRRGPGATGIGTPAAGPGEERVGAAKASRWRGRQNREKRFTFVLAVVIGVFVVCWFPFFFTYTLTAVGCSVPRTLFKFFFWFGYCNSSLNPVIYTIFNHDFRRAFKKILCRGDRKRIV
# [26] = biological target: Alpha-1A adrenergic receptor (Homo sapiens) (UniProt P35348); experiment: Alpha1A (h) Eurofins-Cerep binding assay; parameters: ligand concentration 0.1 nM; conditions: filed as antagonist, Compound concentration 10.0 uM
# [27] = biological target: T2, Muscarinic acetylcholine receptor M4 (Homo sapiens) (UniProt P08173); experiment: M4 (h) Eurofins-Cerep binding assay; parameters: ligand concentration 0.2 nM; conditions: filed as antagonist, Compound concentration 10.0 uM
# T2 sequence (whole entry): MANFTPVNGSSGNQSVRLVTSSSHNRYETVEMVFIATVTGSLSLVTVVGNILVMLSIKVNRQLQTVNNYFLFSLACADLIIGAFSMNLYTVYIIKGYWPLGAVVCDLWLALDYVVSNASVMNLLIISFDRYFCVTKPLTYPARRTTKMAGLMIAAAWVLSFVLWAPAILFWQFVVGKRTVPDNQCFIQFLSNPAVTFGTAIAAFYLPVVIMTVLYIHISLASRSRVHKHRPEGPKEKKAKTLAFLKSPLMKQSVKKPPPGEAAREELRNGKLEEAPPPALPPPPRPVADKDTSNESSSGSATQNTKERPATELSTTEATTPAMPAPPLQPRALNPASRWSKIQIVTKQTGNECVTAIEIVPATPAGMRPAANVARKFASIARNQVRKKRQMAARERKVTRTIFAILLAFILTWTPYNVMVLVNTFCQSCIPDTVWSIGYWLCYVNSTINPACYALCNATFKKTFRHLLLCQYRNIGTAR
# [28] = biological target: Macrophage-stimulating protein receptor (Homo sapiens) (UniProt Q04912); conditions: Compound concentration 1000.0 nM
# [29] = biological target: Testis-specific serine/threonine-protein kinase 3 (Homo sapiens) (UniProt Q96PN8); conditions: Compound concentration 1000.0 nM
# [30] = biological target: Phosphatidylinositol 5-phosphate 4-kinase type-2 gamma (Homo sapiens) (UniProt Q8TBX8); conditions: Compound concentration 1000.0 nM
# [31] = biological target: Histamine H2 receptor (Homo sapiens) (UniProt P25021); conditions: Compound concentration 10.0 uM
# [32] = biological target: Cyclin-G-associated kinase (Homo sapiens) (UniProt O14976); conditions: Compound concentration 1000.0 nM
# Macrophage-stimulating protein receptor (Homo sapiens), sequence (Q04912 25-304 limits assumed): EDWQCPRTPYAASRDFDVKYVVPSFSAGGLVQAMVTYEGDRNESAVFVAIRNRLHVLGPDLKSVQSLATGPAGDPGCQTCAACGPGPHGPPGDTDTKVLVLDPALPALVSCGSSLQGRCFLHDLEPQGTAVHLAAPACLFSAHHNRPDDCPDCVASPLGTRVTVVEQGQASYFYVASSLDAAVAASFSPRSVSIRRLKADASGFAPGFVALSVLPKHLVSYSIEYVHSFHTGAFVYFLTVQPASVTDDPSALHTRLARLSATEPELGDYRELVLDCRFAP
# Macrophage-stimulating protein receptor (Homo sapiens), sequence (Q04912 310-1400 limits assumed): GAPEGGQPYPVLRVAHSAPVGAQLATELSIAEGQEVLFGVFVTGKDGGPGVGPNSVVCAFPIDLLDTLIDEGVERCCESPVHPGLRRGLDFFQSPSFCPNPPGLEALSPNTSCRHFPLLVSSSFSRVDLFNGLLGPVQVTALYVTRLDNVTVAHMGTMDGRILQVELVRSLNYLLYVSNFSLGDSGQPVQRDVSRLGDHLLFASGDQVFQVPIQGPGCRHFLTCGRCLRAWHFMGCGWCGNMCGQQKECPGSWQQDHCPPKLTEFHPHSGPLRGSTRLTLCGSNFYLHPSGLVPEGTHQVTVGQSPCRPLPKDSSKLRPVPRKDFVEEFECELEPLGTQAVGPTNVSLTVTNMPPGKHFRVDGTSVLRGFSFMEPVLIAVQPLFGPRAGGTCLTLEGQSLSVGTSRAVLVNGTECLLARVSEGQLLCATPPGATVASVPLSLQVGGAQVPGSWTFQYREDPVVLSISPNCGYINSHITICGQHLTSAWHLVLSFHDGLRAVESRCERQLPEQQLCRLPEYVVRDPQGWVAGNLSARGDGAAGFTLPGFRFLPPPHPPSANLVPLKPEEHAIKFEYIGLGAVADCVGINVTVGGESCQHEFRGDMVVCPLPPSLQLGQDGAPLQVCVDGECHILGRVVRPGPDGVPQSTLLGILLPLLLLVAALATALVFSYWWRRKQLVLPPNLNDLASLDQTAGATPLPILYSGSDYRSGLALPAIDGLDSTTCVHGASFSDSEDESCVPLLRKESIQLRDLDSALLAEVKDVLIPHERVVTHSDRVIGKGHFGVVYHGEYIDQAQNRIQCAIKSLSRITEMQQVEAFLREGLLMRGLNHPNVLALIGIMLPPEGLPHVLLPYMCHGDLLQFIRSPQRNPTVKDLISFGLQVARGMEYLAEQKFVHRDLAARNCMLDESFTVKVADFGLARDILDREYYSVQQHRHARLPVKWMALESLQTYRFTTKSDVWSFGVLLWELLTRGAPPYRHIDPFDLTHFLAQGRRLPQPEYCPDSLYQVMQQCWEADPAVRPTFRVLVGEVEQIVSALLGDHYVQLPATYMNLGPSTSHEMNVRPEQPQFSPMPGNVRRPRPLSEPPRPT
# Mitogen-activated protein kinase kinase kinase 1 (Homo sapiens), sequence (Q13233 whole entry): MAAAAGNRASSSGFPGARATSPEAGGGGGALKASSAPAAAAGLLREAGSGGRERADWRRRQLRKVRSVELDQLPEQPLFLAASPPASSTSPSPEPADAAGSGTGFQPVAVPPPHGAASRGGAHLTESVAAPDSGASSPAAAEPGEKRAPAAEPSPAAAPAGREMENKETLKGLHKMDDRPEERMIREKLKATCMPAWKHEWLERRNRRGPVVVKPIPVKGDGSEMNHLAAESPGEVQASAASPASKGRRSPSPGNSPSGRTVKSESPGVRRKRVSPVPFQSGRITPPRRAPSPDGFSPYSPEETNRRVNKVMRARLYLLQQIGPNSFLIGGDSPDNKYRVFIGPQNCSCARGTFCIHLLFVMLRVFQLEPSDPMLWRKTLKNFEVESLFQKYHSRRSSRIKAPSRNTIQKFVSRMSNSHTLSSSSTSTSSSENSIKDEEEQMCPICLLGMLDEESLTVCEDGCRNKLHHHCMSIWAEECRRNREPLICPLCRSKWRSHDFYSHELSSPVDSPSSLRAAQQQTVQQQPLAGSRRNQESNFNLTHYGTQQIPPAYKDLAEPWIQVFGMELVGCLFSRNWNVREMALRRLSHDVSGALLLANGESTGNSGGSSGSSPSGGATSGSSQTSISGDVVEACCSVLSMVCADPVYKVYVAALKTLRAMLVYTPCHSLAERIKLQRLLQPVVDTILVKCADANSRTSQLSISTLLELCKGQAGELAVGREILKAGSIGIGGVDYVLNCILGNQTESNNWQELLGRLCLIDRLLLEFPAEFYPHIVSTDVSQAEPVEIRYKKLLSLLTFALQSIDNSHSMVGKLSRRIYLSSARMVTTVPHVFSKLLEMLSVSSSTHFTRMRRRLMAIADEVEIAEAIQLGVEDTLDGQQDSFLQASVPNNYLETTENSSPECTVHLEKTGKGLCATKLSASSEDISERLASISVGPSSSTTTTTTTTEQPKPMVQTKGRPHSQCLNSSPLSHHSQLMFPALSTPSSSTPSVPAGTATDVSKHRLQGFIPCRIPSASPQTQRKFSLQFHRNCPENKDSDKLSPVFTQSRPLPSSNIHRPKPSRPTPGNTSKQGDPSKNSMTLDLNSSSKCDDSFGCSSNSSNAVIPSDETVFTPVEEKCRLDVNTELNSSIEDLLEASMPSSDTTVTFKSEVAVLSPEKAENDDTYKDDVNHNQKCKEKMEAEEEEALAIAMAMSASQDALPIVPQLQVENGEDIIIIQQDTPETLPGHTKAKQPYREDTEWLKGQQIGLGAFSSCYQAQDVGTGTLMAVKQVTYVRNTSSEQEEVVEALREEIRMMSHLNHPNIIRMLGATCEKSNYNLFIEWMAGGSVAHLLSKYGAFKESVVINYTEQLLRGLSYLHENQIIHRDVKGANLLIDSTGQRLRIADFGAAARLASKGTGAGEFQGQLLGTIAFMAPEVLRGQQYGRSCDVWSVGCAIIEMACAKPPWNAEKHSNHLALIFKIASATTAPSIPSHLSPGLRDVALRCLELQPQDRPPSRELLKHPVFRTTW
# Glycogen synthase kinase-3 beta (Homo sapiens), sequence (P49841 whole entry, looked up): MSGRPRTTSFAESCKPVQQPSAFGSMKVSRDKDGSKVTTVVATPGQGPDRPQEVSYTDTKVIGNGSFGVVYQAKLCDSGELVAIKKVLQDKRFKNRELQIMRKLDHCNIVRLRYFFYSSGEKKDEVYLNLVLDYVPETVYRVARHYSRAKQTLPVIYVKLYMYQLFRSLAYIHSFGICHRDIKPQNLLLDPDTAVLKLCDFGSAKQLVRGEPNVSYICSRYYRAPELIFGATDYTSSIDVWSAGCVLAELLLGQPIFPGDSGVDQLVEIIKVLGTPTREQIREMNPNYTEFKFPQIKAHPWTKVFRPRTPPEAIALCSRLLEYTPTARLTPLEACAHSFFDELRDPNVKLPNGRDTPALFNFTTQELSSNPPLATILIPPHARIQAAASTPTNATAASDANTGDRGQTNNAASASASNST
# Alpha-2C adrenergic receptor (Homo sapiens), sequence (P18825 whole entry): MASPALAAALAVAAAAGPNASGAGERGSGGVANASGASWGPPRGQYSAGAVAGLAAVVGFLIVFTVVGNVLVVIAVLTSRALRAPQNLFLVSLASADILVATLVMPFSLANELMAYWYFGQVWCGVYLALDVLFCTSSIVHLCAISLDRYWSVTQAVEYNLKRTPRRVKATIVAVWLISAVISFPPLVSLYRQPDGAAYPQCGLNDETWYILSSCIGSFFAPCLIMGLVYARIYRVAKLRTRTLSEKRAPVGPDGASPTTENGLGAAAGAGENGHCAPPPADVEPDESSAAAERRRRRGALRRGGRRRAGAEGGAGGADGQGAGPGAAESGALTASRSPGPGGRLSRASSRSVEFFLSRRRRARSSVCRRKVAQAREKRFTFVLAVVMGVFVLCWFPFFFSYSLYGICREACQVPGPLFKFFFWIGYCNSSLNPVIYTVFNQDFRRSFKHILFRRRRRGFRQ
# Casein kinase I isoform gamma-3 (Homo sapiens), sequence (Q9Y6M4 whole entry, looked up, canonical isoform): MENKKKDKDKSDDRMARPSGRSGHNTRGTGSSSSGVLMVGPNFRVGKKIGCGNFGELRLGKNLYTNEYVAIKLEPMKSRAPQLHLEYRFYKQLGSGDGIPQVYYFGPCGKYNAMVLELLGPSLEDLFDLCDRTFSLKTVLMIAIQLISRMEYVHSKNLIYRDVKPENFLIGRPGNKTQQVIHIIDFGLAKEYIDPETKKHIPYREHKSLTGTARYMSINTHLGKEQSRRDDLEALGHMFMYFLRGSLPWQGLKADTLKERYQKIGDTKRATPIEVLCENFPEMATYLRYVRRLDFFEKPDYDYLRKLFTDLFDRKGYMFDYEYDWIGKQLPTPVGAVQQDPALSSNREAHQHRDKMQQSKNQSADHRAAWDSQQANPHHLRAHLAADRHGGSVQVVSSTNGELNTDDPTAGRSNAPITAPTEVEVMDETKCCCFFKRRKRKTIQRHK
# Dual specificity mitogen-activated protein kinase kinase 1 (Homo sapiens), sequence (Q02750 whole entry): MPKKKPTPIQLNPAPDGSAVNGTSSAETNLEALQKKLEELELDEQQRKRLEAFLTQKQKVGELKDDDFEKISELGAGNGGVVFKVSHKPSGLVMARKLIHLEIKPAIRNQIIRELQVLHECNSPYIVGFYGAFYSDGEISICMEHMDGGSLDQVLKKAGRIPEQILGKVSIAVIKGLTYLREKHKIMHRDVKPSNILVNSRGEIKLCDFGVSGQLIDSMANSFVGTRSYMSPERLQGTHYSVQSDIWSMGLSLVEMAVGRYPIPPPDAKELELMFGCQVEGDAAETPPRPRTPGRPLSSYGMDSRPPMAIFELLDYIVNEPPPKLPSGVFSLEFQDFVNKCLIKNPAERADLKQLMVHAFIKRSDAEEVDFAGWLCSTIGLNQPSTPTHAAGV
# Cyclin-dependent kinase 4 (Homo sapiens), sequence (P11802 whole entry): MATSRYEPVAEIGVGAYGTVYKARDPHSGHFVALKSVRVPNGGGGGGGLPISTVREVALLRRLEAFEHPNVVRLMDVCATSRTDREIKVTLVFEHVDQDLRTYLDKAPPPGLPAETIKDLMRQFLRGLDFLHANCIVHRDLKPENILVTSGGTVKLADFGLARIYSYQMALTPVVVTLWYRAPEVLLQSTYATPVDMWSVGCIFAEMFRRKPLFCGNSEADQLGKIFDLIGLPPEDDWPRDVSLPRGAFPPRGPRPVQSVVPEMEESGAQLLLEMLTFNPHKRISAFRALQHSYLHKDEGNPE
Structure (SMILES),% Inhibition of Control Values (Mean n=2) [1],inhibition [2],inhibition [3],residual activity [4],residual activity [5],residual activity [6],residual activity [7],residual activity [8],residual activity [9],residual activity [10],residual activity [11],residual activity [12],residual activity [13],residual activity [14],residual activity [15],residual activity [16],residual activity [17],% Inhibition of Control Specific Binding (Mean n=2) [18],inhibition [19],residual activity [20],also measured
O=C(NS(=O)(=O)c1ccc(NCC2CCOCC2)c([N+](=O)[O-])c1)c1ccc(N2CCN(Cc3ccc(C(F)(F)F)cc3-c3ccc(Cl)cc3)CC2)cc1Oc1cnc2[nH]ccc2c1 [A-1210227],19.7%,-6.15%,12.7%,92%,100%,74%,81%,100%,55%,100%,100%,100%,91%,100%,100%,88%,94%,-7.6%,34.2%,84%,residual activity [21]: 75%; residual activity [22]: 100%; residual activity [23]: 100%; residual activity [24]: 100%; inhibition [25]: 9.67%; % Inhibition of Control Specific Binding (Mean n=2) [26]: -5.1%; % Inhibition of Control Specific Binding (Mean n=2) [27]: 12.3%; residual activity [28]: 96%; residual activity [29]: 79%; residual activity [30]: 100%; inhibition [31]: 8.95%; residual activity [32]: 100%
CO[C@H]1CC[C@H](CNc2ccc(S(=O)(=O)NC(=O)c3ccc(N4CCN(CC5=C(c6ccc(Cl)cc6)CC(C)(C)CC5)CC4)cc3Oc3cnc4[nH]ccc4c3)cc2[N+](=O)[O-])CC1 [A-1211212],5.4%,6.23%,15.6%,99%,100%,100%,61%,100%,54%,100%,72%,96%,100%,100%,71%,71%,100%,2.5%,28.2%,73%,residual activity [21]: 91%; residual activity [22]: 100%; residual activity [23]: 86%; residual activity [24]: 79%; inhibition [25]: 12.5%; % Inhibition of Control Specific Binding (Mean n=2) [26]: -3.8%; % Inhibition of Control Specific Binding (Mean n=2) [27]: 20.6%; residual activity [28]: 92%; residual activity [29]: 70%; residual activity [30]: 85%; inhibition [31]: 13.6%; residual activity [32]: 99%
